The target of data set [1] is T1, CYP3A (Homo sapiens, UniProt P08684). As to the kind of experiment: in vitro. The following applies: microsomes, pH 7.4.
For data set [2] the following is noted: cited from earlier work; for ka: absorption rate constant, 35-40 (verapamil); for ka / Fa: ref 5,17 (crizotinib), 19-21 (erythromycin), 22-25 (imatinib), 20,32,33 (roxithromycin), 4,34 (telithromycin); for Cave,ss: average plasma concentration at steady-state; for Fa: fraction absorbed, 6,18 (diltiazem), 26-28 (nefazodone), 29,30 (nilotinib), 29,31 (pazopanib); for Cmax,ss: maximum plasma concentration at steady-state.

Data set [3] can be described thus: Non-specific binding of drugs in human liver microsomes (fu,mic), rapid equilibrium dialysis. The note with it: unbound drug fraction in the microsomal mixture, inhibitor 1 µM, 37 °C. It counts as in vitro ADME. In general terms: Liver microsomes are vesicles of endoplasmic reticulum, rich in cytochrome P450 enzymes.
Data set [4] can be described thus: Intracellular fraction of unbound drug (fu,cell), dialysis of human hepatocyte homogenate. It counts as in vitro ADME. The note with it: homogenate of cryopreserved human hepatocytes, geometrical mean ± SD of triplicates.
Data set [5] addresses T1, CYP3A. The note with it: probe drugs midazolam and simvastatin, in vivo; ref University of Washington Drug Interaction Database; cited from earlier work.
Data set [6] in a line: Intracellular drug accumulation ratio (Kp) and intracellular bioavailability (Fic) in cryopreserved human hepatocytes. It is filed as in vitro ADME. The following applies: human, cryopreserved human hepatocytes in suspension; cellular drug accumulation ratio; 0.5 µM drug; no chloroquine; geometrical mean ± SD of triplicates.
The subject of data set [7] is human hepatocytes. Described as above. It is filed as in vitro ADME. The following applies: intracellular bioavailability = fu,cell × Kp; human hepatocytes.
The target in data set [8] is T1, CYP3A. As to the kind of experiment: in vitro.
The subject of data set [9] is human hepatocytes. As to the kind of experiment: Cytosolic drug accumulation ratio (Kpcyto) and cytosolic bioavailability (Fcyto) in human hepatocytes with chloroquine. It is filed as in vitro ADME. The note with it: for Kpcyto: cellular drug accumulation ratio in the presence of chloroquine (100 µM, 45 min), 0.5 µM drug; for Fcyto: cytosolic bioavailability = fu,cell × Kpcyto; for Fcyto / Fic/Fcyto: human hepatocytes; for Fic/Fcyto: ratio of intracellular to cytosolic bioavailability.

The next data set has as its system transporters. More on the design: method as in earlier work. The note with it: cells wrapped over several lines are given as printed fragments; ref DIDB; cited from earlier work.
The test system of the next data set is MATE2-K. The note with it: read-out: IC50 (MATE2-K); ref DIDB; cited from earlier work.
Data set [10] deals with CYP3A4. Details: method as in earlier work. The note with it: ref DIDB; cited from earlier work.
In a further data set the test system is P-gp. The following applies: read-out: Ki (P-gp); ref DIDB; cited from earlier work.
The test system of a further data set is OCT2. The note with it: read-out: IC50 (OCT2); ref DIDB; cited from earlier work.
Another data set has as its system OCT1. The following applies: read-out: IC50 (OCT1); ref DIDB; cited from earlier work.
The test system of a further data set is CYP2D6. Details: method as in earlier work. The following applies: in HLM; ref DIDB; cited from earlier work.
The subject of another data set is MATE1. The note with it: read-out: IC50 (MATE1); ref DIDB; cited from earlier work.
Another data set deals with OATP1A2. The note with it: read-out: IC50 (OATP1A2); ref DIDB; cited from earlier work.
The subject of data set [11] is CYP3A4. The following applies: midazolam; cited from earlier work.
The mark [12] stands for this setting: HLM 0.1 mg/ml, read-out: fu,mic at 0.1 mg/ml.
The mark [13] stands for this setting: HLM 0.5 mg/ml, read-out: fu,mic at 0.5 mg/ml.
The mark [14] stands for this setting: pH 7.4, KI, inactivation constant, HLM 0.5 mg/ml preincubation 0-30 min, midazolam 20 µM, mean ± SD of triplicates.
Where [15] appears, read: pH 7.4, KI,u, calculated as fu,mic at 0.5 mg/ml × KI.

Here are results for 11 molecules from paper PMC6458156, “Improved predictions of time-dependent drug-drug interactions by determination of cytosolic drug concentrations” (Scientific Reports, 2019).

Where two headings read alike, the source gives them in different places.

T1 sequence (P08684 2-503): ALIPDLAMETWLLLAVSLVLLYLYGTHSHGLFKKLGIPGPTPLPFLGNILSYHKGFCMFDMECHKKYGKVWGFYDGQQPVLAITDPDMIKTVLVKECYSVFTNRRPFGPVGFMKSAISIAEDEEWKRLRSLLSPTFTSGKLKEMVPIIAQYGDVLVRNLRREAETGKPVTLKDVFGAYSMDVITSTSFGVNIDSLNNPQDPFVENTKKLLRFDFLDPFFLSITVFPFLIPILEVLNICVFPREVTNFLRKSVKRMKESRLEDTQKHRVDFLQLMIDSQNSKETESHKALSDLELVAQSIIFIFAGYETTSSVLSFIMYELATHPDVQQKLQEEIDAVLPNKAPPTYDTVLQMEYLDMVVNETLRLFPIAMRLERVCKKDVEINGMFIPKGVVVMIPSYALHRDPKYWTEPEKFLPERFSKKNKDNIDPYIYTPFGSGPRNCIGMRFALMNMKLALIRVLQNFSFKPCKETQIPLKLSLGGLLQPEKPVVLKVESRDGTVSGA

As to `CC[C@H]1OC(=O)[C@H](C)C(=O)[C@H](C)[C@@H](O[C@@H]2O[C@H](C)C[C@H](N(C)C)[C@H]2O)[C@](C)(OC)C[C@@H](C)C(=O)[C@H](C)[C@H]2N(CCCCn3cnc(-c4cccnc4)c3)C(=O)O[C@]12C` [Telithromycin], at CYP3A [1], the midpoint of inhibition, the IC50 at 5 min, lay at 14100 ± 3500 nM and the Ki at 5 min turned out to be 6770 nM. In [2], the ka is 0.95 h⁻¹ and the Fa is given as 0.92. Besides, in data set [2] (800 mg qd), the “Cave,ss” value is 425 ng/mL and the “Cmax,ss” value is 1,840 ng/ml. Moreover, the fraction unbound at 4 h, 1 µM in data set [3] (setting [12]) is 0.962. In data set [3] (setting [13]), the fraction unbound at 4 h, 1 µM was found to be 0.657. Also, in data set [4], the fraction unbound at 4 h was found to be 0.0371 ± 0.0016. Further, the “class of CYP3A inhibitor by increase in AUC of the probe drug” value (“class of CYP3A inhibitor by increase” below) on CYP3A [5] was “strong (strong inhibitors of CYP3A, causing a ≥5-fold increase in the area under the concentration-time curve (AUC) of the probe drug)”. The Kp at 0.5 µM in data set [6] turned out to be 6.6 ± 0.6. Besides, the Fic in the data set with human hepatocytes [7] is recorded as 0.25 ± 0.03. The molecule further gave a KI (inactivation) at CYP3A [8] (setting [14]) of 1490 ± 190 nM. Also, at CYP3A [8] (setting [15]), the KI (inactivation) is 979 nM. Besides, the “Kp compared with Kpcyto” value with human hepatocytes [9] (absence vs presence of chloroquine, p ≤ 0.05 in Student’s t-test where called significant) is “comparable Kp and Kpcyto”. In the data set on human hepatocytes [9], the Kpcyto is on record as 7.24 ± 0.8, the Fcyto came to 0.27 ± 0.03 and the Fic/Fcyto is 0.92.
At CYP3A [1], `C[C@@H](Oc1cc(-c2cnn(C3CCNCC3)c2)cnc1N)c1c(Cl)ccc(F)c1Cl` [Crizotinib] registered an IC50 at 5 min of more than 100000 nM and a Ki at 5 min of 97400 nM. Further, in [2], the ka was 0.817 h⁻¹ and the Fa is 0.4. In [2] (100 mg qd), the “Cave,ss” value was 45 ng/mL and the “Cmax,ss” value was 86 ng/mL. Also, in data set [2] (250 mg bid), the “Cave,ss” value was 129 ng/mL and the “Cmax,ss” value was 327 ng/mL. Moreover, in [2] (300 mg bid), the “Cave,ss” value was 169 ng/mL and the “Cmax,ss” value was 420 ng/mL. For the same molecule, the fraction unbound at 4 h, 1 µM in data set [3] (setting [12]) is 0.505. In addition, the fraction unbound at 4 h, 1 µM in [3] (setting [13]) was 0.118. Moreover, the fraction unbound at 4 h in data set [4] is 0.0006 ± 0.0001. Moreover, the “class of CYP3A inhibitor by increase” value at CYP3A [5] is “medium (medium inhibitors causing a ≥2 but <5-fold increase)”. Further, the Kp at 0.5 µM in data set [6] came out at 75 ± 0.11. In the data set on human hepatocytes [7], the Fic amounted to 0.044 ± 0.005. On CYP3A [8] (microsomes, pH 7.4), this molecule registered a Ki of 90 nM. Moreover, on CYP3A [8] (setting [14]), the KI (inactivation) was determined as 775 ± 130 nM. Besides, the KI (inactivation) at CYP3A [8] (setting [15]) was 91 nM. Further, the “Substrate of other transporters in vitro” value in the data set with transporters is given as “OATP1B1/3, 2B1”. In addition, in the data set with human hepatocytes [9], the Kpcyto amounted to 70 ± 0.4 and the Fcyto was found to be 0.041 ± 0.005.
With `CCN(CC)CCCC(C)Nc1ccnc2cc(Cl)ccc12` (stereo not drawn) [Chloroquine], the IC50 is 4000 nM in the data set on MATE2-K; 150000 nM with CYP3A4 [10]; approximately 100000 nM in the data set on OCT2; 13000 nM in the data set on OCT1; approximately 50000 nM with CYP2D6; 1500 nM in the data set on MATE1. Moreover, the IC50 in the data set on OATP1A2 was […]. Further, the Ki in the data set on P-gp was […].
Regarding `COc1ccc([C@@H]2Sc3ccccc3N(CCN(C)C)C(=O)[C@@H]2OC(C)=O)cc1` [Diltiazem], the “Cmax,ss” value in data set [2] (60 mg tid) was 70 ng/mL; in data set [2] (240 mg qd) it was 166 ng/mL. For the same molecule, the fraction unbound at 4 h, 1 µM was 0.792 in data set [3] (setting [12]) and 0.708 in data set [3] (setting [13]).
On CYP3A [1], `CCc1nn(CCCN2CCN(c3cccc(Cl)c3)CC2)c(=O)n1CCOc1ccccc1` [Nefazodone] yielded an IC50 at 5 min of 2590 ± 220 nM and a Ki at 5 min of 242 nM. Also, in data set [2] (200 mg bid), the “Cave,ss” value is 582 ng/mL and the “Cmax,ss” value is 1,400 ng/ml. In data set [2], the Fa is listed as 1.00. Moreover, the fraction unbound at 4 h, 1 µM in data set [3] (setting [12]) amounted to 0.187. The fraction unbound at 4 h, 1 µM in data set [3] (setting [13]) is 0.18. In data set [4], this molecule displayed a fraction unbound at 4 h of 0.0019 ± 0.0001. For the same molecule, the Kp at 0.5 µM in data set [6] was determined as 8.1 ± 1.3. The Fic in the data set with human hepatocytes [7] is reported as 0.015 ± 0.002. Besides, in the data set on human hepatocytes [9], the Kpcyto turned out to be 11 ± 1.6, the Fcyto is given as 0.021 ± 0.003 and the Fic/Fcyto was found to be 0.74.
With `Cc1ccc(NC(=O)c2ccc(CN3CCN(C)CC3)cc2)cc1Nc1nccc(-c2cccnc2)n1` [Imatinib], the “Cmax,ss” value in data set [2] (400 mg qd) is 2,596 ng/ml.
Take `CC[C@H]1OC(=O)[C@H](C)[C@@H](O[C@H]2C[C@@](C)(OC)[C@@H](O)[C@H](C)O2)[C@H](C)[C@@H](O[C@@H]2O[C@H](C)C[C@H](N(C)C)[C@H]2O)[C@](C)(O)C[C@@H](C)C(=O)[C@H](C)[C@@H](O)[C@]1(C)O` [Erythromycin]: in [2], the ka is 0.6 h⁻¹ and the Fa is given as 0.65. In [2] (500 mg tid), the “Cave,ss” value was 361 ng/mL and the “Cmax,ss” value was 821 ng/mL. Besides, the fraction unbound at 4 h, 1 µM in data set [3] (setting [12]) is 0.64. In addition, in data set [3] (setting [13]), the fraction unbound at 4 h, 1 µM was 0.586. In addition, in data set [4], the fraction unbound at 4 h came to 0.0444 ± 0.0013. Also, the Kp at 0.5 µM in data set [6] worked out at 1.5 ± 2.4. Also, the Fic with human hepatocytes [7] was found to be 0.066 ± 0.104. Besides, in the data set on human hepatocytes [9], the Kpcyto is given as 1.2 ± 4.33 and the Fcyto is on record as 0.052 ± 0.192.
As for `Cc1ncc2n1-c1ccc(Cl)cc1C(c1ccccc1F)=NC2` [midazolam, Midazolam], in the data set on CYP3A4 [11], the “fraction metabolized by CYP3A4 (fm)” value is on record as 0.94 and the “fraction of drug escaping CYP3A4-mediated gut metabolism (FG)” value is listed as 0.51.
Consider `CC[C@H]1OC(=O)[C@H](C)[C@@H](O[C@H]2C[C@@](C)(OC)[C@@H](O)[C@H](C)O2)[C@H](C)[C@@H](O[C@@H]2O[C@H](C)C[C@H](N(C)C)[C@H]2O)[C@](C)(O)C[C@@H](C)CN(C)[C@H](C)[C@@H](O)[C@]1(C)O` [Azithromycin], for which the figures for the fraction unbound at 4 h, 1 µM in data set [3] (setting [12]) and in data set [3] (setting [13]) were 0.766 and 0.765, respectively.
As to `Cc1ccc(Nc2nccc(N(C)c3ccc4c(C)n(C)nc4c3)n2)cc1S(N)(=O)=O` [Pazopanib], the “Cave,ss” value in data set [2] (800 mg qd) is on record as 30,971 ng/ml. Further, the Fa in [2] is on record as 0.80. Besides, the “Substrate of other transporters in vitro” value in the data set on transporters is on record as “OATP1B1/3, OCT1”.
On CYP3A [1], `Cc1cn(-c2cc(NC(=O)c3ccc(C)c(Nc4nccc(-c5cccnc5)n4)c3)cc(C(F)(F)F)c2)cn1` [Nilotinib] gave an IC50 at 5 min of 1310 ± 300 nM and an inhibitory constant (Ki) at 5 min of 128 nM. Also, in [2], the Fa is recorded as 0.30. In addition, the fraction unbound at 4 h, 1 µM in data set [3] (setting [12]) came out at 0.195. In data set [3] (setting [13]), the fraction unbound at 4 h, 1 µM is 0.121. The fraction unbound at 4 h in data set [4] came to 0.0002. Moreover, the “class of CYP3A inhibitor by increase” value on CYP3A [5] was “medium (medium inhibitors causing a ≥2 but <5-fold increase)”. Also, the Fic in the data set on human hepatocytes [7] is reported as 0.022 ± 0.001. The molecule further came in with a KI (inactivation) at CYP3A [8] (setting [14]) of 1290 ± 230 nM. On CYP3A [8] (setting [15]), the KI (inactivation) was 156 nM. For the same molecule, in the data set with human hepatocytes [9], the Kpcyto was determined as 51 ± 9 and the Fcyto was 0.008 ± 0.001.

A word on the IC50: it is the concentration needed to halve the response being measured. Usually Ki stands for a dissociation constant, usually derived from enzyme kinetics or from competition with a known ligand.
